# According to ChEMBL document CHEMBL4321875, “Potent, Selective, Water Soluble, Brain-Permeable EP2 Receptor Antagonist for Use in Central Nervous System Disease Models” (J Med Chem, 2020):
# Legend:
# [1] = Aqueous solubility in PBS pH 7.4 incubated for 24 hrs by nephelometry; format: physicochemical
# [2] = Stability in mouse liver microsomes assessed as half life at 1 uM incubated for 120 mins by LC-MS/MS analysis; format: ADME, Microsome; conditions: 2 h
# [3] = Solubility of compound at 2 mg/ml incubated for 24 hrs by shake flask thermodynamic solubility method based HPLC analysis; format: physicochemical
Structure (SMILES),solubility kinetic at 24 h [1],t1/2 [2],solubility thermodynamic at 24 h [3]
Cc1[nH]c2ccccc2c1CCNC(=O)c1ccc(N2CCOCC2)cc1,70 µM,–,–
Cc1[nH]c2ccccc2c1CCNC(=O)c1ccc(N2CCOCC2)nc1,206 µM,–,–
Cc1[nH]c2ccccc2c1CCNC(=O)c1cnc(Nc2ccncc2)nc1,38 µM,–,–
Cc1ccc(Nc2ncc(C(=O)NCCc3c(C)[nH]c4ccccc34)cn2)c(C)n1,100 µM,–,–

# The remaining lines, values ahead:
solubility kinetic at 24 h [1],t1/2 [2],solubility thermodynamic at 24 h [3],Structure (SMILES)
45 µM,–,–,Cc1cc(C)nc(Nc2ncc(C(=O)NCCc3c(C(F)(F)F)[nH]c4ccccc34)cn2)c1
25 µM,8 min,–,Cc1ccnc(Nc2ncc(C(=O)NCCc3c(C)[nH]c4ccccc34)cn2)c1
–,–,700 µM,Cc1cc(C)nc(Nc2ncc(C(=O)NCCc3c(C(F)(F)F)[nH]c4ccccc34)cn2)c1.Cl
